Results reported in PMC11157491, “Novel Alaninamide Derivatives with Drug-like Potential for Development as Antiseizure and Antinociceptive Therapies—In Vitro and In Vivo Characterization” (ACS Chemical Neuroscience, 2024).

Assays:
[1] = Metabolic stability in human liver microsomes; assay type: in vitro ADME; settings: human, human liver microsomes; HLMs, 120 min; read-out: metabolic stability (% remaining after the reaction with HLMs)
Excerpt: Molecular mass Molecular mass of the
Substrate (m/z) metabolite (m/z) Metabolic pathway
* Reference unstable drug; metabolic stability determined using the same procedure published previously

[2] = molecular target: T1, Cav2.2 calcium ion channel (Rattus norvegicus, UniProt Q02294); experiment: Cav2.2 binding (antagonist radioligand); settings: rat cerebral cortex, read-out: % inhibition of control specific binding
T1 construct: rat cerebral cortex; tissue Eurofins (contract assay); host or cells: rat cerebral cortex
Method: Binding/functional studies were carried out commercially in Eurofins Laboratories (Poitiers, France) and Eurofins Panlabs Discovery Services Taiwan, Ltd. (New Taipei City, Taiwan) using testing procedures that were reported previously (for details, see Table S2).
Table S2. Radioligand binding and functional assays. […]
Cav2.2 calcium ion channel (antagonist radioligand) […]
Potassium channel (hERG) […]
Assays were performed commercially in Eurofins Laboratories ( Poitiers, France) or Eurofins Panlabs Discovery Services
Taiwan, Ltd. (New Taipei City, Taiwan).

PTZ-kindled mice = experiment: Behavioral tests in PTZ-kindled mice (locomotor activity, elevated plus maze, forced swim test); assay type: in vivo
Method: As compared to the nonkindled control group, there were no changes in locomotor activity, as well as anxiety- and depressive-like behavior in the PTZ-kindled control group.
The procedure was performed as described in detail in our earlier studies.[15],[65] […] The seizure severity was scored using the modified Racine’s scale. […] 24 h after the last PTZ injection, animals were subjected to the locomotor activity test, the elevated plus maze test, and the forced swim test according to the methods described in detail elsewhere. After behavioral tests, animals were sacrificed and the brains were rapidly removed. Hippocampi and cortices were dissected, frozen, and stored at −80 °C until the assay of determination of GABA and glutamate concentration.
Figure S1. Acute effects of compound 26 (A) and 28 (B) on grip strength in mice. Both compounds were administered i.p. at a dose of 50 mg/kg, 30 min before the test. Control animals received vehicle. Data are presented as means ± SEM of grip strength expressed in mN/g of body weight (n = 10animals). The statistical significance was evaluated by a Student's t test (GraphPad Prism 8). […]
entries in the elevated plus maze test; (B) the percentage of the time spent in the open arms in the elevated plus maze test; (C) spontaneous locomotor activity; (D) total immobility duration in the forced swim test in mice subjected to the PTZ kindling procedure. PTZ (40 mg/kg, i.p.) was given three times a week, 30 min after […]
Behavioral tests were performed 24 h after the last PTZ injection. Data are shown as means ± SEM (n = 10–15 animals). The statistical significance was evaluated by one-way ANOVA followed by the Tukey’s post hoc test: *p < 0.05, (GraphPad Prism 8). […]

T1 sequence (Q02294 whole entry): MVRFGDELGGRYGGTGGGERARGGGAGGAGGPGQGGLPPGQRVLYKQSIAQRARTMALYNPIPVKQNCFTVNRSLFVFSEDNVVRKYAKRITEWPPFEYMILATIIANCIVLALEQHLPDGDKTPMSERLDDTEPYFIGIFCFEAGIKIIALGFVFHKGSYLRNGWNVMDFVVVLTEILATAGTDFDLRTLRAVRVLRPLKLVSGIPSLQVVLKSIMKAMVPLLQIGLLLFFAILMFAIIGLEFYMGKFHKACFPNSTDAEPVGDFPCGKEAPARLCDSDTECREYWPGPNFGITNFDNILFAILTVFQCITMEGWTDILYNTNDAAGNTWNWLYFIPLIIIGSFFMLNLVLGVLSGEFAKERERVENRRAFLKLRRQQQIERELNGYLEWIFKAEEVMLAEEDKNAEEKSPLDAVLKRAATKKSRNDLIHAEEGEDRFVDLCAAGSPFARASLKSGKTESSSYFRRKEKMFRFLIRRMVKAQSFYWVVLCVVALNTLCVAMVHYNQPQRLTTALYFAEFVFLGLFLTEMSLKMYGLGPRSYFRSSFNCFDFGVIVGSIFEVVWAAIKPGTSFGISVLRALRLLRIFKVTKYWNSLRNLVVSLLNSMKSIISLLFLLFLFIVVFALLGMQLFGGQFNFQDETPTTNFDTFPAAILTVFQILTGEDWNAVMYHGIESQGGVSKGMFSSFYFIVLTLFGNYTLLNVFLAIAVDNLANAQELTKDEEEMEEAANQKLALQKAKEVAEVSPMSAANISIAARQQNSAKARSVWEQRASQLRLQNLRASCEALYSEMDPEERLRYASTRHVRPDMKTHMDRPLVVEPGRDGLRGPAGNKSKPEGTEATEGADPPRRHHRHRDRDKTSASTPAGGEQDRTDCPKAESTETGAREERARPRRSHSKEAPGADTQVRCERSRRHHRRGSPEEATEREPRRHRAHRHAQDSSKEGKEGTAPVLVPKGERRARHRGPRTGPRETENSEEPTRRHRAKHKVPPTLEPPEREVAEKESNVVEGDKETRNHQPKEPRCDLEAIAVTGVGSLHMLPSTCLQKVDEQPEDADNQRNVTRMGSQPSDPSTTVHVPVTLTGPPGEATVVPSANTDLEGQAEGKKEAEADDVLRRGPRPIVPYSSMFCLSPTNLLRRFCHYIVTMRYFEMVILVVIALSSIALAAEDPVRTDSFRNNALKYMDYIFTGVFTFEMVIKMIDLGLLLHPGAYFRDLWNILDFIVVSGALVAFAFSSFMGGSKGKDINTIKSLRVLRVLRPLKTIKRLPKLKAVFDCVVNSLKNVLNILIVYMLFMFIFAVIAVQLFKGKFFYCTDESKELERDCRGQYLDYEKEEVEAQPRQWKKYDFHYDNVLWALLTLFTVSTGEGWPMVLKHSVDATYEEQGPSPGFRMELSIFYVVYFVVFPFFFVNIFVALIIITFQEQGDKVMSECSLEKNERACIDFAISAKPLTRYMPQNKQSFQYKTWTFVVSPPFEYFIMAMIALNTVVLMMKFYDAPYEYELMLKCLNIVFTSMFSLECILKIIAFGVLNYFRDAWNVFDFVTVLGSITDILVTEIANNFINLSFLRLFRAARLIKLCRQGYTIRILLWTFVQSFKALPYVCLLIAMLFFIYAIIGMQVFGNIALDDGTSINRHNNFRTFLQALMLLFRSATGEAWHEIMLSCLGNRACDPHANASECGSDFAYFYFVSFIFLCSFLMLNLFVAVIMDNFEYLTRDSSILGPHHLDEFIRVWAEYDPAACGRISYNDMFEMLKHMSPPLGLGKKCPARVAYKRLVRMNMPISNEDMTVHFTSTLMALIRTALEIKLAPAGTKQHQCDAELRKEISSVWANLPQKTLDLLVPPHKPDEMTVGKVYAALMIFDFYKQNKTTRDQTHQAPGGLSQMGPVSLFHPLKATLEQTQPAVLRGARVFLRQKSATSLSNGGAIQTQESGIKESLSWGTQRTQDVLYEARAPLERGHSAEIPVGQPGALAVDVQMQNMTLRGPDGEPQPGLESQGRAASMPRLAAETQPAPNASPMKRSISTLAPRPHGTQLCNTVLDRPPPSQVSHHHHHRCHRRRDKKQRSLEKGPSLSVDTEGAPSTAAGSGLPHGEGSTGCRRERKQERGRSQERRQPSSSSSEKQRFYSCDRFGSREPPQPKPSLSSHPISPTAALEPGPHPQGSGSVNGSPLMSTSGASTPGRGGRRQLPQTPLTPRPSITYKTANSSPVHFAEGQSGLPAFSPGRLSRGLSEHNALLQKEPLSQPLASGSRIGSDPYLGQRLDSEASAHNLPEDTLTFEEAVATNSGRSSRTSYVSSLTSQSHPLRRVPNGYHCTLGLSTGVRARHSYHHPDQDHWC
T1 sequence (P54287 whole entry partner): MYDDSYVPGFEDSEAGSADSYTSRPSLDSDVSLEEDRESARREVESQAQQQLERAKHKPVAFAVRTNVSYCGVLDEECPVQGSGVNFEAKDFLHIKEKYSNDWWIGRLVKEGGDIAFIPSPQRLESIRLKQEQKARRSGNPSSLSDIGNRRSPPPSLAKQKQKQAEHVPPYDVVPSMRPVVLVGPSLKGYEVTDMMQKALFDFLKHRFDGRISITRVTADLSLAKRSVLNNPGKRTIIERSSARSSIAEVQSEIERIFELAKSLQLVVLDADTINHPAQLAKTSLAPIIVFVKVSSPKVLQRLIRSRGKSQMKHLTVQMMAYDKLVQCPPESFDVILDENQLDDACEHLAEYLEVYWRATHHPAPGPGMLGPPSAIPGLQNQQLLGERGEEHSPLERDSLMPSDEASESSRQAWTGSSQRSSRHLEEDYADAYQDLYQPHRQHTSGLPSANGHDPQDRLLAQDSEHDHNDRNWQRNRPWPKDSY
T1 sequence (P54290 25-944 partner limits assumed): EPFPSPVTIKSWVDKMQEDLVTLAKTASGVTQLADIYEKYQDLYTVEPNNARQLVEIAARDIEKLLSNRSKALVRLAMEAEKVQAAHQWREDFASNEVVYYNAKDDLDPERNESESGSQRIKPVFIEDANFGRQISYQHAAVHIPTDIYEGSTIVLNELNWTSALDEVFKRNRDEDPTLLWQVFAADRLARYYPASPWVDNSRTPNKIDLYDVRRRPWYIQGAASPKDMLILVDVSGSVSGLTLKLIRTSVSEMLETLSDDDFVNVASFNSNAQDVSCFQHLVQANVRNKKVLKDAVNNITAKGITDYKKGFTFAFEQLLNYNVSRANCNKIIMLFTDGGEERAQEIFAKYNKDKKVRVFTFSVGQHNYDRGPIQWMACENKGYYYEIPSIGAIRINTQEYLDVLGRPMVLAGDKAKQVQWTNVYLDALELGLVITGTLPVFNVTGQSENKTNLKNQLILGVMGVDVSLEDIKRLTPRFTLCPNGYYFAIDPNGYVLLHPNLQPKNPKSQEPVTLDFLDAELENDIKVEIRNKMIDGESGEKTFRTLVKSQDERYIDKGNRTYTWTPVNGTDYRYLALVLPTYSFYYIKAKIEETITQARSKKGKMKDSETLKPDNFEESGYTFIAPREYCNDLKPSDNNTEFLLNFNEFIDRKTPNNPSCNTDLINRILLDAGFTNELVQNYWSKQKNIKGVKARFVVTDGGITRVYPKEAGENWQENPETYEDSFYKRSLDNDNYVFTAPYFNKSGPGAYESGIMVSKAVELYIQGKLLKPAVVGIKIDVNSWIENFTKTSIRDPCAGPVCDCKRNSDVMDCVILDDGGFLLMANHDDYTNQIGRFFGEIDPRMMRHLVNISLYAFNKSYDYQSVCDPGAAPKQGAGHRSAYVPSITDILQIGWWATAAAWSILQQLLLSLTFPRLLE
T1 sequence (P54290 945-1091 partner limits assumed): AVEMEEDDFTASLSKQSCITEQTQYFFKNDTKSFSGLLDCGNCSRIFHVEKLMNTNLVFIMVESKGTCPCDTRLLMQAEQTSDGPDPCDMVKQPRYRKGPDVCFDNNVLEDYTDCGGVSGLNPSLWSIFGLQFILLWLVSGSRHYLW

With `CC(=O)NC(C)C(=O)N1CCN(c2cccc(C(F)(F)F)c2)CC1` (stereo not shown) [Compound 26, N-(1-oxo-1-(4-(3-(Trifluoromethyl)phenyl)piperazin-1-yl)propan-2-yl)acetamide] as the compound, how does the remaining at 2 h [1] read?
The remaining at 2 h was 93.5%.

Which results are given for `CC(=O)NC(C)C(=O)N1CCN(c2cccc(OC(F)(F)F)c2)CC1` (stereo not shown) [Compound 28, N-(1-oxo-1-(4-(3-(Trifluoromethoxy)phenyl)piperazin-1-yl)propan-2-yl)acetamide]?
inhibition at 100 µM [2]: 3.6%; decrease of total immobility duration in the forced swim test (PTZ-kindled mice; 10 and 20 mg/kg, vs PTZ-kindled control): ~10%; locomotor activity and anxiety-related behavior (PTZ-kindled mice; repeated administration): did not affect
